# Earlier results in patent publication US20200147194A1, “PEPTIDE VACCINE AND PEPTIDE VACCINE COMPOSITION FOR CRANIAL NERVE DISEASE” (KEIO UNIVERSITY, priority 2017, published 2020).
# System: pre-alteration peptides (SEQ ID NO:12)
substance,measurement,value
"SEQ ID NO:16: SEQ ID NO:12 with leucine substituted for the second amino acid from the N-terminus; HLA-A*02:01-binding, VEGFR-2 (VLAMFFWLL; modified peptide)",CTLs induced by stimulation by the peptide: recognition of pre-alteration peptides (SEQ ID NO:12),able recognize and damage
